Source: article PMC6138628, “Enhanced uptake of gH625 by blood brain barrier compared to liver in vivo: characterization of the mechanism by an in vitro model and implications for delivery” (Scientific Reports, 2018)
Read-outs that look alike come from different tables or passages of the source. Residues, ends and D or L forms follow the SMILES beside them.

Key:
[1] = Membrane fluidity, Laurdan generalized polarization (GP); type: physicochemical; conditions: P/L molar ratio 0.5, after 10 min, 37 °C, 5 mM HEPES, 100 mM NaCl, pH 7.4
Description: (§1) The samples were vortexed and lyophilized overnight.
LUVs containing Laurdan were prepared to determine membrane fluidity. In order to insert Laurdan into the bilayer, it was added to lipid films before hydration. The peptide gH625 was added to LUVs at a P/L molar ratio of 0.5 and after 10 min the fluorescence spectra were recorded using a 1 cm path length quartz cell, thermostated at 25 °C or 37 °C. Spectra were corrected for the baseline signal. Laurdan emission spectra were recorded from 400 to 550 nm with λex 365 nm in the absence or presence of gH625 in 5 mM HEPES, 100 mM NaCl buffer (pH 7.4). Laurdan emission can shift from 440, in the ordered phase, to 490 in the disordered phase. The excitation generalized polarization (GP) was calculated as GP = (I440 − I490)/(I440 + I490) where I440 and I490 are the fluorescence intensities at the maximum emission wavelength in the ordered (λem 440 nm) and disordered (λem 490 nm) phases.
LUVs fluidity before and after the addition of gH625 were obtained using the fluorescent probe Laurdan[47],[48]. […] The Generalized Polarization (GP) is a parameter commonly used to quantify the change in the lipid fluidity. […] The GP parameter allowed quantifying the effect of the peptide (Table 1). […]

[2] = outer NBD reduced with sodium dithionite
Description: A modification of the lipid mixing experiment allowed to measure peptide-induced mixing of the inner monolayer. A concentration of 0.6% mol for each of the fluorescent probes within the liposome was used. In order to completely reduce the NBD located at the outer surface of the membrane, LUVs were treated with sodium dithionite 100 mM (from a stock solution of 1 M dithionite in 1 M TRIS, pH 10.0) for approximately 1 h on ice in the dark. Excess sodium dithionite was removed by size exclusion chromatography through a Sephadex G-75 50 DNA Grade filtration column (GE Healthcare) eluted with a buffer containing 10 mM TRIS, 100 mM NaCl, and 1 mM EDTA, pH 7.4.
In the inner monolayer assay, the fluorescence from the vesicle membranes’ outer monolayer is eliminated by the addition of an aqueous reducing agent; while in the lipid mixing experiment we measured both hemi-fusion and complete fusion, in this experiment we determined only the extent of lipid mixing between the inner monolayers.

[3] = Circular dichroism spectroscopy in aqueous solution; type: physicochemical; conditions: room temperature
Description: (§2) CD spectra were recorded at room temperature on a Jasco J-715 spectropolarimeter in a 0.1 cm quartz cell. The spectra are an average of 3 consecutive scans from 260 to 190 nm, recorded with a band width of 3 nm, a time constant of 16 s, and a scan rate of 10 nm/min. Spectra were recorded and corrected for the blank. Mean residue ellipticities (MRE) were calculated as MRE = Obsd/lcn (Obsd is the ellipticity measured in millidegrees, l is the path length of the cell in cm, c is the peptide concentration in mol/l, and n is the number of amino acid residues in the peptide). A solution of 8 µM of peptide with SUVs, was prepared as previously described. […] The percentage of helix was calculated from measurements of their mean residue ellipticity at 222 nm[44]. We used [ϑ]222 values of 0 and −40.000(1–2.5/n) deg cm^2 dmol^−1 per amino acid residue for 0% and 100% helicity; n is the number of amino acid residues. The ratio of the ellipticities at 222 and 208 nm were used to discriminate between monomeric and oligomeric states of helices. The experiment was performed before and after centrifugation to remove eventual precipitated peptides from solution.

[4] = Circular dichroism spectroscopy; type: physicochemical; conditions: CD, peptide 8 µM, P/L 0.08; for Helix content: [θ]222, according to Chakrabartty et al., lipid 100 µM, 5 mM phosphate buffer, room temperature
Description: as §1, §2

[5] = previous work; cited from earlier work
From the text: In general a high accumulation in the target tissue results in an improved therapeutic effect, while a large amount of drug distributed to non-target organs may cause unwanted toxicity and/or side effects. It is thus fundamental to reduce liver metabolism and renal clearance to produce prolonged blood circulation with an i ...

CC[C@H](C)[C@H](NC(=O)[C@H](CC(C)C)NC(=O)[C@H](C)NC(=O)[C@H](CC(N)=O)NC(=O)[C@H](Cc1ccc(O)cc1)NC(=O)[C@H](Cc1c[nH]cn1)NC(=O)[C@H](C)NC(=O)[C@H](Cc1c[nH]c2ccccc12)NC(=O)[C@H](CCCNC(=N)N)NC(=O)[C@@H](NC(=O)[C@H](CC(C)C)NC(=O)[C@@H](NC(=O)[C@H](CO)NC(=O)[C@H](C)NC(=O)[C@H](CC(C)C)NC(=O)CNC(=O)[C@@H](N)Cc1c[nH]cn1)[C@@H](C)O)[C@@H](C)O)C(=O)N[C@@H](CCCNC(=N)N)C(=O)N[C@@H](C)C(=O)N[C@@H](Cc1ccccc1)C(N)=O [gH625] (H-HGLASTLTRWAHYNALIRAF-NH2)
Generalized polarization (GP) value, +gH625 ([1]; Laurdan in LUVs DSPC/POPE/PI/PS/lysoPC/SM/DOPG (37/21/7/9/3/18/5), no peptide 37 °C: 0.40): 0.49
Generalized polarization (GP) value, +gH625 ([1]; Laurdan in LUVs PI/DOPE/DPPC/PS/Chol/SM (4/23/30/8/20/15), no peptide 37 °C: 0.19): 0.15
Inner monolayer fusion ([2]; at a P/L ratio corresponding to 100% of fusion, BBB mimicking LUVs): approximately 20%
Inner monolayer fusion ([2]; at a peptide/lipid ratio with 100% of lipid mixing, liver mimicking LUVs): 100%
Secondary structure by CD [3]: mainly random coil structure
Helix content ([4]; BBB mimicking SUVs): 58%
Helix content ([4]; liver mimicking SUVs): 40%
Ratio θ222/θ208 (monomeric < 0.8, oligomeric > 1.0) ([4]; BBB mimicking SUVs): approximately 0.68
Ratio θ222/θ208 (monomeric < 0.8, oligomeric > 1.0) ([4]; liver mimicking SUVs): ~0.45
Alterations of cell viability or maximal mitochondrial oxidative capacity linked to uptake [5]: not linked to alterations of cell viability or maximal mitochondrial oxidative capacity
